# Source: US20250295619A1, “Use of Salvianolic Acid E in the Preparation of Drugs Targeting Senescent Cells, Inhibiting Tumors or Extending Lifespan” (Shanghai Institute of Nutrition and Health, Chinese Academy …, priority 2024, published 2025)
# “Also recorded” adds a separate entry of the source.
# Assays:
# [1] = test system: SASP factors; assay: RNA-seq and GSEA expression profile of BLEO-induced senescent PSC27 cells; type: cell-based, human
# Method: To cause cell damage, 50 μg/mL bleomycin (bleomycin, BLEO) was added to the culture medium when PSC27 cells grew to 80% (abbreviated as PSC27-CTRL). After 12 hours of drug treatment, the cells were simply washed 3 times with PBS, left in the culture medium for 7-10 days, and then the subsequent experiments were performed.
# Whole-transcriptome sequencing was performed on the primary human prostate stromal cell line PSC27 under different treatment conditions. Total RNA samples were obtained from stromal cells. Their integrity was verified by Bioanalyzer 2100 (Agilent), RNA was sequenced by Illumina HiSeq X10, and gene expression levels were quantified by software package rsem (https://deweylab. github.io/rsem/). Briefly, rRNA was depleted from RNA samples with the RiboMinus Eukaryote Kit (Qiagen, Valencia, CA, USA); and according to the manufacturer's instructions, TruSeq Stranded Total RNA Preparation Kits (Illumina, San Diego, CA, USA) was used to construct a strand-specific RNA-seq library before deep sequencing.
# Paired-end transcriptomic reads were mapped to a reference genome (GRCh38/hg38), and reference-annotation was performed from Gencode v27 using the Bowtie tool. Duplicate reads were identified using the picard Tools (1.98) script to mark duplicates (https://github. com/broadinstitute/picard), and only non-duplicate reads were retained. Reference splice junctions were provided by reference transcriptome (Ensembl Build 73). FPKM values were calculated with Cufflinks, and Cufflinks maximum likelihood estimation function was used to call differential gene expression. […]
# Based on the data obtained from the preliminary analysis of RNA-seq, after analyzing and comparing each differentially expressed significant gene, the genes were sorted using the “wald statistics” obtained from DESeq2. […] DESeq2 independent filtering was based on the average of normalized read counts to select genes with very low expression levels. […]
# [2] = test system: PSC27; assay: Flow cytometry apoptosis of PSC27; type: cell-based, human; settings: SAE
# From the text: Q2, distribution area of early apoptotic cells; Q3, distribution area of late apoptotic cells.
# [3] = test system: PC3/PSC27 transplanted tumors; assay: PC3/PSC27 xenograft tumor volume in NOD/SCID mice; type: in vivo, mouse; settings: single agent
# Method: Every two weeks was a dosing cycle, and MIT (mitoxantrone) was intraperitoneally administered to the mice on the first day of the 3rd/5th/7th weeks. From the first day of the 5th week, the mice were intraperitoneally administered with SAE, […]. After the 8-week course of treatment, the mice were dissected for pathological identification and expression analysis.
# All experimental mouse experiments were carried out in strict accordance with the relevant regulations of the Institutional Animal Care and Use Committee (IACUC), Shanghai Institutes for Biological Sciences, Chinese Academy of Sciences. Immuno-deficient mice (NOD-SCID mice, ICR) (body weight about 25 g) aged 6-8 weeks were used for animal experiments related to the present patent. Stromal cells PSC27 and epithelial cells PC3 were mixed at a predetermined ratio of 1:4, and each graft contained 1.25×10^6 cells for tissue remodeling. The xenograft tumors were implanted into mice by subcutaneous transplantation, and the animals were euthanized 8 weeks after the end of the transplantation surgery. Tumor volume was calculated according to the following formula: V=(π/6)×((1+w)/2)3 (V, volume; l, length; w, width).
# In a preclinical treatment trial, subcutaneously transplanted mice were fed with a standard experimental diet, after 2 weeks chemotherapy drugs mitoxantrone (MIT, dose: 0.2 mg/kg) and/or SAE (500 μl, dose: 10 mg/kg) via intraperitoneal administration. The time points were: the former was administrated on the first day of the 3rd, 5th and 7th weeks, and the latter was administrated on the first day of the 5th and 7th weeks. A total of 3 cycles of MIT administration were carried out throughout the course of treatment, and each cycle lasted for 2 weeks. After the course of treatment, mouse tumors were harvested for volume measurement and histological analysis. Each mouse cumulatively received 0.6 mg/kg body weight of MIT and 30 mg/kg body weight of SAE. In order to cause systemic expression of SASP factors induced by chemotherapy, MIT was administered to mice through intravenous infusion according to the above steps and sequence, but the dose was reduced to 0.1 mg/kg body weight/each time (the cumulative dose of MIT received in the whole course of treatment was 0.3 mg/kg body weight) to reduce drug-related toxicity. The chemotherapy experiment ended at the end of the 8th week, and the mice were dissected immediately after sacrifice, and the xenograft tumors were collected and used for pathological system analysis.
# [4] = test system: PC3/PSC27 tumors; assay: DNA damage and apoptosis in tumors of treated mice; type: in vivo, mouse
# From the text: To investigate mechanisms directly supporting this senescence-associated pattern with expression and reversal of SASP in MIT-administered mice, the inventors dissected tumors in animals treated with both drugs 7 days after the first SAE administration, and the time point of 7 days after administration was selected mainly because drug-resistant clones had not yet formed in cancer cells in the lesion at this time. […] As supporting evidence, when SAE was applied during treatment, caspase 3 cleavage activity was increased, which was a typical hallmark of apoptosis (FIG. 29).
smiles,measurement,setting,value
"O=C(/C=C/c1ccc(O)c(O)c1/C(=C\c1ccc(O)c(O)c1)C(=O)O[C@H](Cc1ccc(O)c(O)c1)C(=O)O)O[C@H](Cc1ccc(O)c(O)c1)C(=O)O [SAE, salvianolic acid E]",expression of SASP factors in senescent cells after SAE treatment,[1]; BLEO-induced senescent PSC27,universally reduced; also recorded: generally decreased
same,molecular signatures characterizing SASP expression or NF-κB activation (GSEA),[1]; BLEO-induced senescent PSC27 after SAE,significant repression
same,expression profile of senescent cells,"[1]; RNA-seq, BLEO-induced senescent PSC27",significantly altered
same,change of proliferating cells,[2],not obvious
same,proportion of apoptosis of senescent PSC27 cells,[2],significantly increased
same,viability of senescent PSC27 cells,[2],significantly reduced
same,tumor shrinkage by the agent itself,[3],did not cause tumor shrinkage
same,indices of DNA damage or apoptosis,[4]; MIT-treated animals administered with SAE,significantly enhanced
same,caspase 3 cleavage activity,[4]; SAE applied during treatment,significantly increased
same,degree of DNA damage and apoptosis,"[4]; single agent compared with placebo, 7 days after first SAE administration",could not induce DNA damage or cause apoptosis
